How the values were obtained:
KDM4D = target: T1, KDM4D (Homo sapiens, UniProt Q6B0I6); assay: isothermal titration calorimetry; type: binding
T1 construct: catalytic core, residues 1-342 (11-342 visible in crystals); pQTEV N-terminal His6 tag removed by TEV protease; E. coli
T1 sequence (Q6B0I6 1-342): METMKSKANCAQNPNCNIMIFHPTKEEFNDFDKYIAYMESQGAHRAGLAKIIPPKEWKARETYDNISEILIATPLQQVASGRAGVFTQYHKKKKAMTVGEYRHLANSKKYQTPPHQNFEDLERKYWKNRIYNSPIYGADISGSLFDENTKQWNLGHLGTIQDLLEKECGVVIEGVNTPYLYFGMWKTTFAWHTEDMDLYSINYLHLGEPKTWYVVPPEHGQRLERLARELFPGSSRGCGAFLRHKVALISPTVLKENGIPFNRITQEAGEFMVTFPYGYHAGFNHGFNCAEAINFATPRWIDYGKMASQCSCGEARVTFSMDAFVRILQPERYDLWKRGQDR
Description: isothermal titration calorimetry on KDM4D

KDM4A = target: T2, KDM4A (Homo sapiens, UniProt O75164); assay: LANCE Ultra antibody-based demethylase assay; type: biochemical
T2 construct: catalytic domain, residues 1-359; pQTEV N-terminal His6 tag removed by TEV protease
T2 sequence (O75164 1-359): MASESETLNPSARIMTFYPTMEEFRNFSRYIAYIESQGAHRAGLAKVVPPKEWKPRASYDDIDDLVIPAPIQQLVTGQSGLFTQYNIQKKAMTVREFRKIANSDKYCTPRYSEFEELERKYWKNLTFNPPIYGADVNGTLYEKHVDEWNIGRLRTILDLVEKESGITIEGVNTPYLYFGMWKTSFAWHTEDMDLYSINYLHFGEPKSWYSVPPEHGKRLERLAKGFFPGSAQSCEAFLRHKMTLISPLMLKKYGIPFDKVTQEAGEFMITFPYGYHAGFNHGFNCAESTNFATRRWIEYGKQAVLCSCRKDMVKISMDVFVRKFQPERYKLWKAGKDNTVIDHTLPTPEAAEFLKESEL
Description: LANCE Ultra antibody-based demethylase assay on KDM4A

Work on `NNC(=O)Cc1nnn[nH]1` [compound 1] yielded a Kd (KDM4D) of 2.3 ± 0.9 µM.

Work on `NNC(=O)c1ccc(-c2nn[nH]n2)cc1` [compound 6] yielded an IC50 (KDM4A) of 216 ± 33 µM.

In the case of `NNC(=O)c1cccc(-c2nn[nH]n2)c1` [compound 7], the Kd (KDM4D) is reported as 41 ± 15 µM and the IC50 (KDM4A) is reported as 195 ± 39 µM.

Reference: paper PMC6899576, “Structure‐Based Screening of Tetrazolylhydrazide Inhibitors versus KDM4 Histone Demethylases” (Chemmedchem, 2019)
